# Test results as given in patent US4837228A, “Antiinflammatory and antimicrobial compounds and compositions” (The University of Mississippi, priority 1982, dated 1989).
# “And” between values parts separate entries of the source, which are not always exact repeats. Equal values may be shown once. Read-outs that look alike come from different tables or passages of the source.
# Key:
# Assay type in all cases: cell-based
# Bacillus subtilis [1] = experiment: MIC, two-fold (broth) serial dilution, B. subtilis
# Description: (§1) Both qualitative and quantitative screens were performed. Qualitative screening was accomplished using the agar well diffusion assay technque while quantitative screening was accomplished by the two-fold (broth) serial dilution method to determine the minimum inhibitory concentration (MIC). Innoculation was accomplished with one loop-full of a 1:10 dilution of the 24-hour-old broth culture, (fungal cultures and M.smegmatis more often required 48 to 72 hours of incubation) of the test organisms in sterile water. Streptomycin sulfate was used as a positive control for antibacterial activity while amphitericin B was used as an antifungal positive control. Organisms utilized in the screens included gram-positive, gram-negative, and acid-fast bacteria as well as different types of fungi. […] An intermediate type activity is seen where R is hydrogen. However, where R is lengthened up to C15 a decrease in activity was noted. Total saturation of the two double bonds in the compounds having a methyl side chain lead, in most cases, to an increase in both antifungal and antibacterial activity.
# Staphylococcus aureus [2] = experiment: MIC, two-fold (broth) serial dilution, S. aureus
# Description: as §1
# Mycobacterium smegmatis [3] = experiment: MIC, two-fold (broth) serial dilution, M. smegmatis
# Description: as §1
# Bacillus subtilis [4] = experiment: agar well diffusion assay, B. subtilis; conditions: from edge of agar well
# Description: as §1
# Staphylococcus aureus [5] = experiment: agar well diffusion assay, S. aureus; conditions: from edge of agar well
# Description: as §1
# Mycobacterium smegmatis [6] = experiment: agar well diffusion assay, M. smegmatis; conditions: from edge of agar well
# Description: as §1
# Escherichia coli = experiment: agar well diffusion assay, E. coli; conditions: from edge of agar well
# Description: as §1
# Pseudomonas aeruginosa = experiment: agar well diffusion assay, Ps. aeruginosa; conditions: from edge of agar well
# Description: as §1
# Candida albicans = experiment: agar well diffusion assay, C. albicans; conditions: from edge of agar well
# Description: as §1
# Saccharomyces cerevisiae = experiment: agar well diffusion assay, S. cerevisiae; conditions: from edge of agar well
# Description: as §1
# [7] = system: Trichophyton mentagrophytes; experiment: agar well diffusion assay, T. mentagrophytes; conditions: one entry across 48 hr and 72 hr
# Description: as §1
# Aspergillus niger = experiment: agar well diffusion assay, A. niger; conditions: from edge of agar well
# Description: as §1
# [8] = system: erythrocyte (heat-induced hemolysis); experiment: erythrocyte membrane stabilization assay (heat-induced erythrocyte hemolysis); conditions: Erythrocyte; for inhibition at 250 µM: 2.5 × 10^-4 M
# Description: The published procedure (Proc. Soc. Exp. Biol. Med. 1967; 125; 837-842 Brow et al) for in vitro assay for antiinflammatory agents based on stabilization of erythrocytes was used. All compounds were prepared for administration by dissolving in physiologic saline or suspending in 2% ethanol in saline and the pH adjusted to 7.4 The concentrations tested in one series are given in Table 8. Aspirin (ASA) and phenylbutazone were used as positive controls for comparison of activity. Tests using this procedure were successfully and repeatedly using either 40% or 20% RBC suspensions.
# [9] = 48 hr, listed as Streptomycin-SO4
# [10] = 24 hr, listed as Streptomycin-SO4
structure (smiles),measurement,setting,value
"[H]/N=C(/N)N[C@H]1[C@H](O)[C@@H](O)[C@H](O[C@@H]2O[C@@H](C)[C@](O)(C=O)[C@H]2O[C@@H]2O[C@@H](CO)[C@H](O)[C@@H](O)[C@@H]2NC)[C@@H](N/C(N)=N\[H])[C@@H]1O [Streptomycin SO4, reference compound]",MIC,Bacillus subtilis [1]; 24 hr,3.12 µg/mL
same,MIC,Bacillus subtilis [1]; 48 hr,25 µg/mL
same,MIC,Staphylococcus aureus [2]; 24 hr,3.12 µg/mL
same,MIC,Staphylococcus aureus [2]; 48 hr,12.5 µg/mL and 6.25 µg/mL
same,MIC,Staphylococcus aureus [2]; [9],12.5 µg/mL and 25.0 µg/mL and 25 µg/mL
same,MIC,Mycobacterium smegmatis [3]; 24 hr,1.56 µg/mL
same,MIC,Mycobacterium smegmatis [3]; [10],1.56 µg/mL and 0.78 µg/mL
same,MIC,Mycobacterium smegmatis [3]; 48 hr,1.56 µg/mL
same,MIC,Mycobacterium smegmatis [3]; [9],1.56 µg/mL and 0.78 µg/mL
same,width of inhibition zone,Bacillus subtilis [4]; 24 hr,7. mm
same,width of inhibition zone,Bacillus subtilis [4]; [10],11. mm
same,width of inhibition zone,Bacillus subtilis [4]; 48 hr,8. mm
same,width of inhibition zone,Bacillus subtilis [4]; [9],10. mm
same,width of inhibition zone,Staphylococcus aureus [5]; 24 hr,9. mm
same,width of inhibition zone,Staphylococcus aureus [5]; [10],10. mm
same,width of inhibition zone,Staphylococcus aureus [5]; 48 hr,9. mm
same,width of inhibition zone,Staphylococcus aureus [5]; [9],10. mm
same,width of inhibition zone,Mycobacterium smegmatis [6]; 24 hr,20. mm
same,width of inhibition zone,Mycobacterium smegmatis [6]; 48 hr,22. mm
same,width of inhibition zone,Escherichia coli; 24 hr,2. mm
same,width of inhibition zone,Escherichia coli; [10],5. mm
same,width of inhibition zone,Escherichia coli; 48 hr,2. mm
same,width of inhibition zone,Escherichia coli; [9],5. mm
same,width of inhibition zone,Pseudomonas aeruginosa; 24 hr,3. mm
same,width of inhibition zone,Pseudomonas aeruginosa; [10],7. mm
same,width of inhibition zone,Pseudomonas aeruginosa; 48 hr,3. mm
same,width of inhibition zone,Pseudomonas aeruginosa; [9],6. mm
"CCCCCc1cc(O)c2c(c1)OC(C)(CCCC(C)C)CC2 (stereo not shown) [CBC (X), 2-methyl-2(4'-methyl-pentyl)-5-hydroxy-7-pentyl chroman]",width of inhibition zone,Bacillus subtilis [4]; 24 hr,4.0 mm
same,width of inhibition zone,Bacillus subtilis [4]; 48 hr,4.0 mm
same,width of inhibition zone,Staphylococcus aureus [5]; 24 hr,13. mm
same,width of inhibition zone,Staphylococcus aureus [5]; 48 hr,13. mm
same,width of inhibition zone,Mycobacterium smegmatis [6]; 24 hr,7. mm
same,width of inhibition zone,Mycobacterium smegmatis [6]; 48 hr,7. mm
same,width of inhibition zone,Escherichia coli; 24 hr,5. mm
same,width of inhibition zone,Escherichia coli; 48 hr,5. mm
same,width of inhibition zone,Pseudomonas aeruginosa; 24 hr,1. mm
same,width of inhibition zone,Pseudomonas aeruginosa; 48 hr,1. mm
same,width of inhibition zone,Candida albicans; 48 hr,2. mm
same,width of inhibition zone,Candida albicans; 72 hr,3. mm
same,width of inhibition zone,Saccharomyces cerevisiae; 48 hr,7. mm
same,width of inhibition zone,Saccharomyces cerevisiae; 72 hr,7. mm
same,agar well diffusion result in words,[7],No growth
same,width of inhibition zone,Aspergillus niger; 48 hr,1. mm
same,width of inhibition zone,Aspergillus niger; 72 hr,1. mm
"CC(=O)Oc1ccccc1C(=O)O [Aspirin, Acetylsalicylic Acid, reference compound]",inhibition at 250 µM,"[8]; Table 8, read-out: inhibition of heat-induced erythrocyte hemolysis",21%
same,inhibition at 250 µM,"[8]; Table 9 Test 1 (20% RBC), read-out: percent inhibition of heat-induced erythrocyte hemolysis",21%
same,inhibition at 500 µM,"[8]; Table 9 Test 3 (20% RBC), 5.0 × 10^-4 M, read-out: percent inhibition of heat-induced erythrocyte hemolysis",40%
same,inhibition at 500 µM,"[8]; 5×10^-4 M, read-out: inhibition of heat-induced red cell hemolysis",40%
"Cc1ccc(C(=O)c2ccc(CC(=O)O)n2C)cc1 [Tolmetin, reference compound]",inhibition at 200 µM,"[8]; Table 9 Test 1 (20% RBC), 2.0 × 10^-4 M, read-out: percent inhibition of heat-induced erythrocyte hemolysis",27%
